Source: US5078986A, “Method for enhancing magnetic resonance imaging using an image altering agent containing an excess of chelating agent” (Mallinckrodt Medical, Inc., priority 1990, dated 1992)
Entries after “also recorded” stand apart in the source; their conditions may differ.

How the values were obtained:
[1] = system: renal medulla and renal cortex; assay: Abdominal NMR imaging in rabbits (Example 11); format: in vivo, rabbit; conditions: 0.3 ml/kg (0.5 mmol Gd(III)/kg) i.v.
Protocol: Two rabbits were anesthetized and abdominal NMR images were obtained in the General Electric NMR scanner. Rabbits then received intravenous doses of 0.3 ml/kg (0.5 mmol Gd(III)/kg) of the preparation of composition D of Example 1 (GdNa2 DTPA) and additional abdominal NMR images were made over a period of two hours after dosing.

mice = assay: Acute intravenous toxicity in mice (Example 7); format: in vivo, Swiss CF-1 albino mouse
Excerpt: The acute intravenous toxicity of disodium (diethylenetriaminepentaacetato)gadolinium (III) (composition C of Example 1) was studied.
A total of 16 Swiss CF-1 albino mice (8 male, 22.0-25.6 g; 8 female, 18.2-24.1 g) were used. Picric acid markings were used for individual identification.
The protocol of Example 4 was used. Groups of 2-4 mice, with sexes equally represented, received single intravenous doses of the test substance according to the following schedule: […]

[2] = system: excised hearts (normal and infarcted tissues); assay: NMR imaging of excised hearts of dogs with coronary occlusion (Example 10); format: in vivo, dog; conditions: 2 ml/kg (0.34 mmol Gd(III)/kg), 10 min
Protocol: Selective catheterization of the left anterior descending coronary artery or circumflex coronary artery was achieved via a percutaneous intracarotid artery approach in anesthetized dogs. Gelfoam plugs were inserted into the coronary artery, via the catheter, in order to produce coronary occlusion. Animals were treated with lidocaine to prevent coronary arrhythmias and morphine to relieve pain.

[3] = system: normal and infarcted myocardial tissue, blood; assay: Proton T1 values of myocardium and blood in dogs with coronary occlusion (Example 10); format: in vivo, dog; conditions: for Blood T1: before 510
[4] = system: tissue and blood protons of rabbits; assay: Tissue and blood proton T1 and T2 values in rabbits (Example 9); format: in vivo, rabbit; conditions: 0.51 mmol/kg i.v., 15 min
Protocol: The EKG was recorded with surface electrodes.

## O=C([O-])CN(CCN(CC(=O)[O-])CC(=O)[O-])CCN(CC(=O)[O-])CC(=O)[O-].[Gd+3].[Na+].[Na+] [GdNa2 DTPA, disodium (diethylenetriaminepentaacetato)gadolinium (III)]
[1]
  Alteration of renal proton images: Marked alteration of renal medulla and renal cortex proton images
  Time to peak effects: ≤ 15 min
mice; mouse, i.v.
  Dose up to which no deaths were observed: 12000 mg/kg
mice; mouse, in vivo
  Ataxia: slight ataxia
  Body weight (in words): slight reduction in body weight
  Respiratory distress: respiratory distress was observed
mice; mouse, in vivo, iv
  Time until all mice appeared normal: ≤ 6 h
mice; up to 12.0 g/kg
  Acute intravenous toxicity profile (in words): relatively safe mouse acute intravenous toxicity profile
[2]
  Image differences between normal and infarcted tissues: marked differences between normal and infarcted tissues; also recorded: greater than that observed in hearts from dogs with infarcts who had not received a contrast enhancement agent
  T1 image of blood remaining in the ventricles: much different T1 image
[3]; 0.17 mmol Gd(III)/kg i.v., 10 min
  T1, infarcted regions of heart muscle: 290 ms
[3]; 0.17 mmol Gd(III)/kg i.v., 10 min, untreated 330
  T1, normally perfused myocardial tissue: 180 ms
[3]; 0.34 mmol Gd(III)/kg, 5 minutes
  Blood T1: 50 ms
[3]; 0.34 mmol Gd(III)/kg, 10 min
  T1, infarcted tissue: 230 ms
[3]; 0.34 mmol Gd(III)/kg, 10 min, untreated 330
  T1, normally perfused myocardium: 135 ms
[3]; 0.34 mmol Gd(III)/kg, 10 minutes
  Blood T1: 100 ms
[4]
  Mean tissue T1, Fat: 61 ms
  Mean tissue T1, Renal Medulla: 130 ms
